Experimental data taken from patent US20090239845A1, “PYRAZOLE COMPOUNDS AS PROSTAGLANDIN RECEPTORS LIGANDS” (priority 2005, published 2009).
Counter-ions that a name gives are not always drawn.

Biological target: T1, human EP1 receptor (Homo sapiens, UniProt P34995)
T1 construct: expressed in transfected cells; host or cells: CHO-K1
T1 sequence (P34995 1-402): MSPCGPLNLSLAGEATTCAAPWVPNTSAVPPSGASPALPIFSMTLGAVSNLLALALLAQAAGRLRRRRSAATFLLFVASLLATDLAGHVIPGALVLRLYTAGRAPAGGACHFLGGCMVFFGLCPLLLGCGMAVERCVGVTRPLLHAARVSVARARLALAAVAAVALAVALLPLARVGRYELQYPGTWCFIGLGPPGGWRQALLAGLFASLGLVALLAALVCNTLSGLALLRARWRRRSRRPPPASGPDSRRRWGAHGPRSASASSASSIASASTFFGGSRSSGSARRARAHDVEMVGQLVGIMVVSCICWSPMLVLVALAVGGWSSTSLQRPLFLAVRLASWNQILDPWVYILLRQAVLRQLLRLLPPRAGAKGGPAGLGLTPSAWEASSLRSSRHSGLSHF
Experiment: human EP1 calcium mobilisation assay
Assay type: cell-based
Conditions: negative logarithm10 of the antagonist dissociation constant; CHO-K1 cells, PGE2; free bases or sodium salts; averages of a number of experiments; read-out: functional pKi value (converted)
Experimental: Briefly, the antagonist properties of compounds are assessed by their ability to inhibit the mobilisation of intracellular calcium ([Ca^2+]i) in response to activation of EP1 or EP3 receptors by the natural agonist hormone prostaglandin E2 (PGE2). Increasing concentrations of antagonist reduce the amount of calcium that a given concentration of PGE2 can mobilise. The net effect is to displace the PGE2 concentration-effect curve to higher concentrations of PGE2. The amount of calcium produced is assessed using a calcium-sensitive fluorescent dye such as Fluo-4, AM and a suitable instrument such as a Fluorimetric Imaging Plate Reader (FLIPR). Increasing amounts of [Ca^2+]i produced by receptor activation increase the amount of fluorescence produced by the dye and give rise to an increasing signal. The signal may be detected using the FLIPR instrument and the data generated may be analysed with suitable curve-fitting software.
The human EP1 or EP3 calcium mobilisation assay (hereafter referred to as ‘the calcium assay’) utilises Chinese hamster ovary-K1 (CHO-K1) cells into which a stable (pCIN; BioTechniques 20 (1996): 102-110) vector containing either EP1 or EP3 cDNA has previously been transfected. Cells are cultured in suitable flasks containing culture medium such as DMEM:F-12 supplemented with 10% v/v foetal calf serum, 2 mM L-glutamine, 0.25 mg/ml geneticin, 100 μM flurbiprofen and 10 μg/ml puromycin.
For assay, cells are harvested using a proprietary reagent that dislodges cells such as Versene. Cells are re-suspended in a suitable quantity of fresh culture media for introduction into a 384-well plate. Following incubation for 24 hours at 37° C. the culture media is replaced with a medium containing Fluo-4 and the detergent pluronic acid, and a further incubation takes place. Concentrations of compounds are then added to the plate in order to construct concentration-effect curves. This may be performed on the FLIPR in order to assess the agonist properties of the compounds. Concentrations of PGE2 are then added to the plate in order to assess the antagonist properties of the compounds.
The data so generated may be analysed by means of a computerised curve-fitting routine. The concentration of compound that elicits a half-maximal inhibition of the calcium mobilisation induced by PGE2 (plC50) may then be estimated.

| Ki [nM] | SMILES |
| --- | --- |
| > 1000 | Cc1cc(NC(=O)c2c(F)cc(CNC(C)C)cc2F)nn1Cc1cc(Cl)ccc1OCC(C)C [Example 440, N-[1-({5-chloro-2-[(2-methylpropyl)oxy]phenyl}methyl)-5-methyl-1H-pyrazol-3-yl]-2,6-difluoro-4-{[(1-methylethyl)amino]methyl}benzamide hydrochloride] |
| > 1000 | Cc1cc(-c2cnc(-n3cccn3)[nH]2)nn1Cc1cc(Cl)ccc1OCc1ccccc1 [Example 481, 1-({5-Chloro-2-[(phenylmethyl)oxy]phenyl}methyl)-5-methyl-3-[2-(1H-pyrazol-1-yl)-1H-imidazol-4-yl]-1H-pyrazole hydrochloride] |
| > 1000 | Cc1cc(-c2cnc(-c3cnccn3)[nH]2)nn1Cc1cc(Cl)ccc1OCc1ccccc1 [Example 482, 2-{4-[1-({5-chloro-2-[(phenylmethyl)oxy]phenyl}methyl)-5-methyl-1H-pyrazol-3-yl]-1H-imidazol-2-yl}pyrazine] |
| > 1000 | Cc1cc(-c2cnc(-c3ccncc3)[nH]2)nn1Cc1cc(Cl)ccc1OCc1ccccc1 [Example 483, 4-{4-[1-({5-Chloro-2-[(phenylmethyl)oxy]phenyl}methyl)-5-methyl-1H-pyrazol-3-yl]-1H-imidazol-2-yl}pyridine hydrochloride] |
| > 1000 | Cc1cc(-c2cnc(N3CCOCC3)[nH]2)nn1Cc1cc(Cl)ccc1OCc1ccccc1 [Example 485, 4-{4-[1-({5-Chloro-2-[(phenylmethyl)oxy]phenyl}methyl)-5-methyl-1H-pyrazol-3-yl]-1H-imidazol-2-yl}morpholine dihydrochloride] |

Biological target: T2, human prostanoid EP1 receptor (Homo sapiens, UniProt P34995)
T2 construct: expressed in transfected cells; host or cells: CHO-K1 (membrane fraction)
T2 sequence (P34995 1-402): T1 sequence (P34995 1-402)
Experiment: Binding assay for the human prostanoid EP1 receptor (competition with [3H]-PGE2)
Conditions: negative logarithm10 of the IC50; competition with [3H]-PGE2, CHO-K1 cell membranes; averages of a number of experiments; read-out: pIC50 value (converted)
Experimental: Competition assay using [^3H]-PGE2.
Compound potencies are determined using a radioligand binding assay. In this assay compound potencies are determined from their ability to compete with tritiated prostaglandin E2 ([^3H]-PGE2) for binding to the human EP1 receptor.
This assay utilises Chinese hamster ovary-K1 (CHO-K1) cells into which a stable vector containing the EP1 cDNA has previously been transfected. Cells are cultured in suitable flasks containing culture medium such as DMEM:F-12 supplemented with 10% v/v foetal calf serum, 2 mM L-glutamine, 0.25 mg/ml geneticin, 10 μg/ml puromycin and 10 μM indomethacin.
Cells are detached from the culture flasks by incubation in calcium and magnesium free phosphate buffered saline containing 1 mM disodium ethylenediaminetetraacetic acid (Na2EDTA) and 10 μM indomethacin for 5 min. The cells are isolated by centrifugation at 250×g for 5mins and suspended in an ice cold buffer such as 50 mM Tris, 1 mM Na2EDTA, 140 mM NaCl, 10 μM indomethacin (pH 7.4). The cells are homogenised using a Polytron tissue disrupter (2×10s burst at full setting), centrifuged at 48,000×g for 20mins and the pellet containing the membrane fraction is washed (optional) three times by suspension and centrifugation at 48,000×g for 20mins. The final membrane pellet is suspended in an assay buffer such as 10 mM 2-[N-morpholino]ethanesulphonic acid, 1 mM Na2EDTA, 10 mM MgCl2 (pH 6). Aliquots are frozen at −80° C. until required.
For the binding assay the cell membranes, competing compounds and [^3H]-PGE2 (3 nM final assay concentration) are incubated in a final volume of 100 μl for 30 min at 30° C. All reagents are prepared in assay buffer. Reactions are terminated by rapid vacuum filtration over GF/B filters using a Brandell cell harvester. The filters are washed with ice cold assay buffer, dried and the radioactivity retained on the filters is measured by liquid scintillation counting in Packard TopCount scintillation counter.
The data are analysed using non linear curve fitting techniques to determine the concentration of compound producing 50% inhibition of specific binding (IC50).

| SMILES | IC50 [nM] |
| --- | --- |
| Cc1cc(NC(=O)CC(C)C)nn1Cc1cc(Cl)ccc1OCC(C)C [Example 76, N-[1-({5-Chloro-2-[(2-methylpropyl)oxy]phenyl}methyl)-5-methyl-1H-pyrazol-3-yl]-3-methylbutanamide] | ≤ 10 |
| Cc1cc(NC(=O)CC(C)(C)C)nn1Cc1cc(Cl)ccc1OCc1ccccc1 [Example 109, N-[1-({5-Chloro-2-[(phenylmethyl)oxy]phenyl}methyl)-5-methyl-1H-pyrazol-3-yl]-3,3-dimethylbutanamide] | ≤ 10 |
| Cc1cc(NC(=O)CC(C)(C)C)nn1Cc1cc(Cl)ccc1OCc1ccc(F)cc1F [Example 132, N-{1-[(5-Chloro-2-{[(2,4-difluorophenyl)methyl]oxy}phenyl)methyl]-5-methyl-1H-pyrazol-3-yl}-3,3-dimethylbutanamide] | ≤ 10 |
| Cc1cc(NC(=O)CC(C)(C)C)nn1Cc1cc(Cl)ccc1OCc1ccc(F)cc1Cl [Example 133, N-{1-[(5-Chloro-2-{[(2-chloro-4-fluorophenyl)methyl]oxy}phenyl)methyl]-5-methyl-1H-pyrazol-3-yl}-3,3-dimethylbutanamide] | ≤ 10 |
| Cc1cc(NC(=O)CC2CCCCC2)nn1Cc1cc(Cl)ccc1OCc1ccccc1 [Example 154, N-[1-({5-Chloro-2-[(phenylmethyl)oxy]phenyl}methyl)-5-methyl-1H-pyrazol-3-yl]-2-cyclohexylacetamide] | ≤ 10 |
| Cc1cc(NC(=O)c2cccc3ccccc23)nn1Cc1cc(Cl)ccc1OCc1ccccc1 [Example 160, N-[1-({5-Chloro-2-[(phenylmethyl)oxy]phenyl}methyl)-5-methyl-1H-pyrazol-3-yl]-1-naphthalenecarboxamide] | ≤ 10 |

The next lines start with the values.

| IC50 [nM] | SMILES |
| --- | --- |
| ≤ 10 | Cc1cc(NC(=O)OC(C)C)nn1Cc1cc(Br)ccc1OCc1ccc(F)cc1F [Example 7, 1-Methylethyl {1-[(5-bromo-2-{[(2,4-difluorophenyl)methyl]oxy}phenyl)methyl]-5-methyl-1H-pyrazol-3-yl}carbamate] |
| ≤ 10 | Cc1cc(NC(=O)OC(C)(C)C)nn1Cc1cc(Br)ccc1OCc1ccc(Cl)cc1Cl [Example 8, 1,1-Dimethylethyl {1-[(5-bromo-2-{[(2,4-dichlorophenyl)methyl]oxy}phenyl)methyl]-5-methyl-1H-pyrazol-3-yl}carbamate] |
| ≤ 10 | Cc1cc(NC(=O)OC2CCOCC2)nn1Cc1cc(Br)ccc1OCc1ccc(Cl)cc1Cl [Example 30, Tetrahydro-2H-pyran-4-yl {1-[(5-bromo-2-{[(2,4-dichlorophenyl)methyl]oxy}phe-nyl)methyl]-5-methyl-1H-pyrazol-3-yl}carbamate] |
| ≤ 10 | Cc1cc(NC(=O)C2CCCCC2)nn1Cc1cc(Cl)ccc1OCc1ccccc1 [Example 110, N-[1-({5-Chloro-2-[(phenylmethyl)oxy]phenyl}methyl)-5-methyl-1H-pyrazol-3-yl]cyclohexanecarboxamide] |
| ≤ 10 | Cc1cc(NC(=O)Cc2ccccn2)nn1Cc1cc(Cl)ccc1OCc1ccc(Cl)cc1F [Example 118, N-{1-[(5-Chloro-2-{[(4-chloro-2-fluorophenyl)methyl]oxy}phenyl)methyl]-5-methyl-1H-pyrazol-3-yl}-2-(2-pyridinyl)acetamide] |
| ≤ 10 | Cc1cc(NC(=O)CC(C)(C)C)nn1Cc1cc(Cl)ccc1OCc1ccc(Cl)cc1F [Example 136, N-{1-[(5-Chloro-2-{[(4-chloro-2-fluorophenyl)methyl]oxy}phenyl)methyl]-5-methyl-1H-pyrazol-3-yl}-3,3-dimethylbutanamide] |
| ≤ 10 | Cc1cc(NC(=O)CC(C)(C)C)nn1Cc1cc(Cl)ccc1OCc1ccc(Cl)cc1 [Example 137, N-{1-[(5-Chloro-2-{[(4-chlorophenyl)methyl]oxy}phenyl)methyl]-5-methyl-1H-pyraozl-3-yl}-3,3-dimethylbutanamide] |
| ≤ 10 | Cc1cc(C(=O)Nc2c(F)cccc2F)nn1Cc1cc(Br)ccc1OCc1ccccc1 [Example 313, 1-({5-Bromo-2-[(phenylmethyl)oxy]phenyl}methyl)-N-(2,6-difluorophenyl)-5-methyl-1H-pyrazole-3-carobxamide] |
| ≤ 10 | Cc1cc(C(=O)Nc2c(F)cccc2F)nn1Cc1cc(Br)ccc1OCc1ccc(F)cc1F [Example 319, 1-[(5-Bromo-2-{[(2,4-difluorophenyl)methyl]oxy}phenyl)methyl]-N-(2,6-difluorophenyl)-5-methyl-1H-pyrazole-3-carboxamide] |
| ≤ 10 | Cc1cc(C(=O)Nc2ccc(CN(C)C)cc2)nn1Cc1cc(Cl)ccc1OCc1ccccc1 [Example 346, 1-({5-Chloro-2-[(phenylmethyl)oxy]phenyl}methyl)-N-{4-[(dimethylamino)methyl]phe-nyl}-5-methyl-1H-pyrazole-3-carboxamide hydrochloride] |
